Like-named read-outs stand apart in the source and are kept apart here.
Molecular target: CK2 (Homo sapiens (Human), UniProt P68400)
Experiment: Radiometric CK2 kinase assay
Assay type: biochemical
Conditions: for inhibition at 1 µM: compound at 1 μM; for inhibition at 0.1 µM: compound at 0.10 μM
[1] = inhibition of CK2 activity, ATP 10 μM

CK2, sequence (P68400 whole entry): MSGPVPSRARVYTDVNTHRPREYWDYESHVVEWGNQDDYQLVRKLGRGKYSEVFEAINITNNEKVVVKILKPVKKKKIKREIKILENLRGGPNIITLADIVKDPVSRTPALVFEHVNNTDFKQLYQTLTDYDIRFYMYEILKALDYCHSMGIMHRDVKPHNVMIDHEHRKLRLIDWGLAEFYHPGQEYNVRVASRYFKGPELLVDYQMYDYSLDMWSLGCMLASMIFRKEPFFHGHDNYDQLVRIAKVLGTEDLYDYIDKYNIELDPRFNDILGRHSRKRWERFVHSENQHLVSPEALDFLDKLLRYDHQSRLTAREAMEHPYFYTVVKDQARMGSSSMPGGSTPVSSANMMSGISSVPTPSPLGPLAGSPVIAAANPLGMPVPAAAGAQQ

Question: For CCOC(=O)c1[nH]c2ccc(Cl)cc2c1-c1cn(CC2CCN(CCNS(=O)(=O)c3ccc(CC)cc3)CC2)nn1 [AB543, Ethyl 5-chloro-3-(1-((1-(2-((4-ethylphenyl)sulfonamido)ethyl)piperidin-4-yl)methyl)-1H-1,2,3-triazol-4-yl)-1H-indole-2-carboxylate], which IC50 is on record?
Answer: 930 nM

Question: CC(=O)c1cccc(Oc2ccc(CN3CCC(Cn4cc(-c5c(C(=O)OCC(C)C)[nH]c6ccc(F)cc56)nn4)CC3)cc2C(C)C)c1 [AB718, Isobutyl 3-(1-((1-(4-(3-acetylphenoxy)-3-isopropylbenzyl)piperidin-4-yl)methyl)-1H-1,2,3-triazol-4-yl)-5-fluoro-1H-indole-2-carboxylate] was tested. Which inhibition at 1 µM (ATP 10 μM) did it give?
Answer: 5%

Question: For CCc1ccc(S(=O)(=O)NCCN2CCC(Cn3cc(-c4c(C(=O)OCC(C)C)[nH]c5ccc(Cl)cc45)nn3)CC2)cc1 [AB557, Isobutyl 5-chloro-3-(1-((1-(2-((4-ethylphenyl)sulfonamido)ethyl)piperidin-4-yl)methyl)-1H-1,2,3-triazol-4-yl)-1H-indole-2-carboxylate], which IC50 is on record?
Answer: 560 nM

Question: For CC(C)COC(=O)c1[nH]c2ccc(F)cc2c1-c1cn(CC2CCN(CCNS(=O)(=O)c3ccc(-c4ccccc4)cc3)CC2)nn1 [AB913, isobutyl 3-(1-((1-(2-([1,1′-biphenyl]-4-sulfonamido)ethyl)piperidin-4-yl)methyl)-1H-1,2,3-triazol-4-yl)-5-fluoro-1H-indole-2-carboxylate], which IC50 is on record?
Answer: 80 nM

Question: How did the IC50 [1] turn out when CC(C)COC(=O)c1[nH]c2ccc(F)cc2c1-c1cn(CC2CCN(CCNS(=O)(=O)c3ccc(Oc4ccccc4)cc3)CC2)nn1 [AB933, isobutyl 5-fluoro-3-(1-((1-(2-((4-phenoxyphenyl)sulfonamido)ethyl)piperidin-4-yl)methyl)-1H-1,2,3-triazol-4-yl)-1H-indole-2-carboxylate] was run?
Answer: 62 nM

Question: Which IC50 does the source give for CCOC(=O)c1[nH]c2ccc(Cl)cc2c1-c1cn(CC2CCN(CCNS(=O)(=O)c3ccc(Cl)cc3)CC2)nn1 [AB460, Ethyl 5-chloro-3-(1-((1-(2-((4-chlorophenyl)sulfonamido)ethyl)piperidin-4-yl)methyl)-1H-1,2,3-triazol-4-yl)-1H-indole-2-carboxylate] here?
Answer: 2510 nM

Question: With CC(C)COC(=O)c1[nH]c2ccc(F)cc2c1-c1cn(CC2CCN(CCNS(=O)(=O)c3ccc4ccccc4c3)CC2)nn1 [AB598, Isobutyl 5-fluoro-3-(1-((1-(2-(naphthalene-2-sulfonamido)ethyl)piperidin-4-yl)methyl)-1H-1,2,3-triazol-4-yl)-1H-indole-2-carboxylate] as the compound, how does the IC50 read?
Answer: 510 nM

Question: For CC(=O)c1[nH]c2ccc(F)cc2c1-c1cn(CC2CCN(CCNS(=O)(=O)c3ccc(CC4CC4)cc3)CC2)nn1 [AB1317, N-(2-(4-((4-(2-acetyl-5-fluoro-1H-indol-3-yl)-1H-1,2,3-triazol-1-yl)methyl)piperidin-1-yl)ethyl)-4-(cyclopropylmethyl)benzenesulfonamide], which IC50 is on record?
Answer: 310 nM

Question: CC(C)CCOC(=O)c1[nH]c2ccc(F)cc2c1-c1cn(CC2CCN(CCNS(=O)(=O)c3ccc(CC(C)C)cc3)CC2)nn1 [AB669, Isopentyl 5-fluoro-3-(1-((1-(2-((4-isobutylphenyl)sulfonamido)ethyl)piperidin-4-yl)methyl)-1H-1,2,3-triazol-4-yl)-1H-indole-2-carboxylate] was tested. Which inhibition at 1 µM (ATP 10 μM) did it give?
Answer: 32%

Question: With CCC(C)C(=O)c1[nH]c2ccc(F)cc2c1-c1cn(CC2CCN(CCNS(=O)(=O)c3ccc(CC(C)C)cc3)CC2)nn1 (stereo not shown) [AB1302, N-(2-(4-((4-(5-fluoro-2-(2-methylbutanoyl)-1H-indol-3-yl)-1H-1,2,3-triazol-1-yl)methyl)piperidin-1-yl)ethyl)-4-isobutylbenzenesulfonamide] as the compound, how does the inhibition at 0.1 µM (ATP 10 μM) read?
Answer: 10%

Question: For COc1ccc(C)cc1-c1ccc(CN2CCC(Cn3cc(-c4c(C(=O)OCC(C)C)[nH]c5ccc(F)cc45)nn3)CC2)cc1Cl [AB692], which inhibition at 1 µM (ATP 10 μM) is on record?
Answer: 5%

Question: O=S(=O)(NCCN1CCC(Cn2cc(-c3c(CO)[nH]c4ccc(F)cc34)nn2)CC1)c1ccc(-c2c(O)cccc2F)cc1 [AB1406, 2′-fluoro-N-(2-(4-((4-(5-fluoro-2-(hydroxymethyl)-1H-indol-3-yl)-1H-1,2,3-triazol-1-yl)methyl)piperidin-1-yl)ethyl)-6′-hydroxy-[1,1′-biphenyl]-4-sulfonamide] was tested. Which inhibition at 0.1 µM (ATP 10 μM) did it give?
Answer: 29%

Question: CC(C)COC(=O)c1[nH]c2ccc(F)cc2c1-c1cn(CC2CCN(CCNS(=O)(=O)c3ccc(C(C)C)cc3)CC2)nn1 [AB603, Isobutyl 5-fluoro-3-(1-((1-(2-((4-isopropylphenyl)sulfonamido)ethyl)piperidin-4-yl)methyl)-1H-1,2,3-triazol-4-yl)-1H-indole-2-carboxylate] was tested. Which “Competition with peptide substrate” value did it give?
Answer: not competitive with the peptide substrate

Question: What about the IC50 of the same compound?
Answer: 150 nM

Question: And the “Inhibition of CK2a versus CK2 holoenzyme” value (CK2a compared with CK2 holoenzyme)?
Answer: not inhibited to the same extent

Question: Cc1noc(C)c1-c1ccc(S(=O)(=O)NCCN2CCC(Cn3cc(-c4c(C(=O)C5CC5)[nH]c5ccc(F)cc45)nn3)CC2)cc1 [AB1285, N-(2-(4-((4-(2-(cyclopropanecarbonyl)-5-fluoro-1H-indol-3-yl)-1H-1,2,3-triazol-1-yl)methyl)piperidin-1-yl)ethyl)-4-(3,5-dimethylisoxazol-4-yl)benzenesulfonamide] was tested. Which IC50 did it give?
Answer: 930 nM

Question: CC(C)Cc1ccc(S(=O)(=O)NCCN2CCC(Cn3cc(-c4c(C=O)[nH]c5ccc(F)cc45)nn3)CC2)cc1 [AB1235, N-(2-(4-((4-(5-fluoro-2-formyl-1H-indol-3-yl)-1H-1,2,3-triazol-1-yl)methyl)piperidin-1-yl)ethyl)-4-isobutylbenzenesulfonamide] was tested. Which IC50 [1] did it give?
Answer: 90 nM

Question: Which IC50 [1] does the source give for CC(=O)c1[nH]c2ccc(F)cc2c1-c1cn(CC2CCN(CCNS(=O)(=O)c3ccc(-c4cccnc4F)cc3)CC2)nn1 [AB1289, N-(2-(4-((4-(2-acetyl-5-fluoro-1H-indol-3-yl)-1H-1,2,3-triazol-1-yl)methyl)piperidin-1-yl)ethyl)-4-(2-fluoropyridin-3-yl)benzenesulfonamide] here?
Answer: 440 nM

Question: CC(C)COC(=O)c1[nH]c2ccc(F)cc2c1-c1cn(CC2CCN(Cc3ccc(-c4cccc(C(C)C)c4)c(Cl)c3)CC2)nn1 [AB758, Isobutyl 3-(1-((1-((2-chloro-3′-isopropyl-[1,1′-biphenyl]-4-yl)methyl)piperidin-4-yl)methyl)-1H-1,2,3-triazol-4-yl)-5-fluoro-1H-indole-2-carboxylate] was tested. Which inhibition at 1 µM (ATP 10 μM) did it give?
Answer: 17%

Question: How did the IC50 [1] turn out when O=C(c1[nH]c2ccc(F)cc2c1-c1cn(CC2CCN(CCNS(=O)(=O)Cc3ccc(C(F)(F)F)cc3)CC2)nn1)C1CC1 [AB1305, N-(2-(4-((4-(2-(cyclopropanecarbonyl)-5-fluoro-1H-indol-3-yl)-1H-1,2,3-triazol-1-yl)methyl)piperidin-1-yl)ethyl)-1-(4-(trifluoromethyl)phenyl)methanesulfonamide] was run?
Answer: 480 nM

Question: Which inhibition at 1 µM (ATP 10 μM) does the source give for CC(C)COC(=O)c1[nH]c2ccc(F)cc2c1-c1cn(CC2CCN(Cc3ccc(-c4ccc5c(c4)CCO5)c(Cl)c3)CC2)nn1 [AB731, Isobutyl 3-(1-((1-(3-chloro-4-(2,3-dihydrobenzofuran-5-yl)benzyl)piperidin-4-yl)methyl)-1H-1,2,3-triazol-4-yl)-5-fluoro-1H-indole-2-carboxylate] here?
Answer: 5%

Question: Which IC50 does the source give for CC(C)COC(=O)c1[nH]c2ccc(F)cc2c1-c1cn(CC2CCN(CCNS(=O)(=O)c3ccc(-c4ccoc4)cc3)CC2)nn1 [AB1071, isobutyl 5-fluoro-3-(1-((1-(2-((4-(furan-3-yl)phenyl)sulfonamido)ethyl)piperidin-4-yl)methyl)-1H-1,2,3-triazol-4-yl)-1H-indole-2-carboxylate] here?
Answer: 65 nM

Source: US20230278983A1, “INDOLE DERIVATIVES AND USES THEREOF FOR TREATING A CANCER” (Universite Claude Bernard Lyon 1, priority 2020, published 2023)
